The source of these data is patent US11136313B2, “Compounds, compositions, and methods for modulating CFTR” (Proteostasis Therapeutics, Inc., priority 2015, dated 2021).

The target in this assay is T1, ΔF508-CFTR (Homo sapiens, UniProt P13569, DEL508-508).
T1 construct: Primary lung epithelial cells homozygous for the Cystic Fibrosis-causing ΔF508 mutation were differentiated for a minimum of 4 weeks; endogenous in cells; host or cells: primary lung epithelial cells (hBE) homozygous for ΔF508, differentiated at an air-liquid interface
Briefly: hBE equivalent current (Ieq) assay: AUC of equivalent chloride current after forskolin/VX-770 in primary lung epithelial cells homozygous for ΔF508. The settings on record: relative to CFTR amplifier (Compound A)+VX-809 (3 uM), compound at 10 uM and Compound A at 3 uM, 24 h treatment. The format is cell-based. Summed up:
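ΔF508/ΔF508 primary human bronchial epithelia, differentiated ≥4 weeks at air-liquid interface, treated basolaterally with compound for 24 h at 37 °C. Transepithelial voltage and conductance by 24-channel current clamp at 36 °C: benzamil, then forskolin plus VX-770 for 27 min, then bumetanide; AUC of equivalent chloride current over vehicle.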

T1 sequence (P13569 with tags, fused parts or gaps DEL508-508): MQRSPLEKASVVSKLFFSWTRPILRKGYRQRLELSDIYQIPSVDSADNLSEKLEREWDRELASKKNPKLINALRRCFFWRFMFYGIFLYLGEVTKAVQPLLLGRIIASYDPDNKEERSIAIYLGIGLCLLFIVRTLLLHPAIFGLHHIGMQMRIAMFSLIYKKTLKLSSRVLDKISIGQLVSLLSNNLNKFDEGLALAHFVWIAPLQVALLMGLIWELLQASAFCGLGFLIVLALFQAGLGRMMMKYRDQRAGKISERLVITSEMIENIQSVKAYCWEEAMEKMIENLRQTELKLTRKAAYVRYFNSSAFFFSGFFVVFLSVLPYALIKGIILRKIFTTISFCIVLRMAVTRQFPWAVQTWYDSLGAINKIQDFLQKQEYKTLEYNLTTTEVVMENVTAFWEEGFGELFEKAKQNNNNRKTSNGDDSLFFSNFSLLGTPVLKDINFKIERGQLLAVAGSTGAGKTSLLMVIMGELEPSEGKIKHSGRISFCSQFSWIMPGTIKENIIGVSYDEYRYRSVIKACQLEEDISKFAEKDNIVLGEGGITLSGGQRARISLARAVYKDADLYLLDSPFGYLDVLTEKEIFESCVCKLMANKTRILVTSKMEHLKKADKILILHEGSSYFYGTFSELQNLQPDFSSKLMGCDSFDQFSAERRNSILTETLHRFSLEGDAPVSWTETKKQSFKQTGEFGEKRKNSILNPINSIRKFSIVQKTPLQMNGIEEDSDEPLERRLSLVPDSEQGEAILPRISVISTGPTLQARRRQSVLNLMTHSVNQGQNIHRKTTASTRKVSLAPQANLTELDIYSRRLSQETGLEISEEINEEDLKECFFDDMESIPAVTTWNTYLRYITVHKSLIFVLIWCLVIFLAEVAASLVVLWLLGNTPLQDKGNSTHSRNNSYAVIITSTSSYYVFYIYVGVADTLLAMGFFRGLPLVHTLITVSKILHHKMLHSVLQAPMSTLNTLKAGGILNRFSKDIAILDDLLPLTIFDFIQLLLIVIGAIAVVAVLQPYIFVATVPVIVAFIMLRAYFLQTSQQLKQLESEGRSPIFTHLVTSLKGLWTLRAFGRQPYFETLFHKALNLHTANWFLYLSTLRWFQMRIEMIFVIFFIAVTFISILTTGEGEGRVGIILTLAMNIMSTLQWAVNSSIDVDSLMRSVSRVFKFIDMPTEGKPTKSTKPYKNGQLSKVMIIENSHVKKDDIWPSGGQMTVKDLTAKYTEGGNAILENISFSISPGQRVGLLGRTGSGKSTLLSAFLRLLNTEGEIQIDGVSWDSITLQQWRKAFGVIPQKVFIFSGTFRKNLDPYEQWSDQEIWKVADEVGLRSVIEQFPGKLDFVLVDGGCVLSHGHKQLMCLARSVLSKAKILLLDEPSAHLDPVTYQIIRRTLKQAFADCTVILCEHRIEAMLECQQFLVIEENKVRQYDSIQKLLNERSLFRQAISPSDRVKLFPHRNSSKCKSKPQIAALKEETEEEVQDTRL

As to `Cc1c(-c2cc(C(=O)[O-])c3c(OC4CC(C)C4)ccc(C)c3n2)sc2ccccc12.[Na+]` (stereo not shown) [Compound 277, Sodium 8-Methyl-2-(3-methyl-1-benzothiophen-2-yl)-5-(3-methylcyclobutoxy)quinoline-4-carboxylate], the Activity result was “++ (activity>50% of CFTR amplifier+VX-809 (3 uM) with compound at 10 uM and Compound A at 3 uM)”.

`Cc1ccc(O[C@@H](C)c2ccccc2)c2c(C(=O)[O-])cc(-c3nc4ccccn4c3C)nc12.[Na+]` [Compound 201]: the Activity entry is “++ (activity>50% of CFTR amplifier+VX-809 (3 uM) with compound at 10 uM and Compound A at 3 uM)”.

Take `Cc1cccc(COc2ccc(C)c3nc(-c4sc5ccccc5c4C)cc(C(=O)[O-])c23)c1.[Na+]` [Compound 304]: the Activity entry is “++ (activity>50% of CFTR amplifier+VX-809 (3 uM) with compound at 10 uM and Compound A at 3 uM)”.

For the compound `Cc1ccc(OCc2ccccc2)c2c(C(=O)O)cc(-c3snc4ccccc34)nc12` [Compound 86, 2-(2,1-Benzothiazol-3-yl)-5-(benzyloxy)-8-methylquinoline-4-carboxylic Acid], the Activity entry is “++ (activity>50% of CFTR amplifier+VX-809 (3 uM) with compound at 10 uM and Compound A at 3 uM)”.

Take `Cc1cc(C)c2nc(-c3c(C)oc4ccccc34)cc(C(=O)O)c2c1` [Compound 5, 6,8-Dimethyl-2-(2-methyl-1-benzofuran-3-yl)quinoline-4-carboxylic acid]: the Activity result is “+ (activity<50% of an CFTR amplifier (Compound A)+VX-809 (3 uM) with compound at 10 uM and Compound A at 3 uM)”.

Take `Cc1c(-c2cc(C(=O)[O-])c3c(OCC4CC(C)(C)OC(C)(C)C4)ccc(C)c3n2)oc2ccccc12.[Na+]` [Compound 338]: the Activity result was “++ (activity>50% of CFTR amplifier+VX-809 (3 uM) with compound at 10 uM and Compound A at 3 uM)”.

As for `Cc1c(-c2cc(C(=O)[O-])c3c(O[C@H]4CCc5ccccc5C4)ccc(C)c3n2)oc2ccccc12.[Na+]` [Compound 253], the Activity result is “++ (activity>50% of CFTR amplifier+VX-809 (3 uM) with compound at 10 uM and Compound A at 3 uM)”.

In the case of `Cc1c(-c2cc(C(=O)O)c3c(OCc4ccccc4)ccc(C#N)c3n2)oc2ccccc12` [Compound 112, 5-(benzyloxy)-8-cyano-2-(3-methyl-1-benzofuran-2-yl)quinoline-4-carboxylic Acid], the Activity entry is “++ (activity>50% of CFTR amplifier+VX-809 (3 uM) with compound at 10 uM and Compound A at 3 uM)”.

Regarding `CCc1ccc(O[C@@H](C)c2ccccc2)c2c(C(=O)O)cc(-c3csc4ccccc34)nc12` [Compound 166], the Activity result was “++ (activity>50% of CFTR amplifier+VX-809 (3 uM) with compound at 10 uM and Compound A at 3 uM)”.

In the case of `Cc1oc2ccccc2c1-c1cc(C(=O)O)c2c(OCc3ccccc3)ccc(C)c2n1` [Compound 35, 5-(Benzyloxy)-8-methyl-2-(2-methyl-1-benzofuran-3-yl)quinoline-4-carboxylic acid], the Activity entry was “++ (activity>50% of CFTR amplifier+VX-809 (3 uM) with compound at 10 uM and Compound A at 3 uM)”.

With `Cc1cc(C)c2nc(-c3nc4ccccc4o3)cc(C(=O)O)c2c1` [Compound 3, 2-(1,3-Benzoxazol-2-yl)-6,8-dimethylquinoline-4-carboxylic acid], the Activity entry is “+ (activity<50% of an CFTR amplifier (Compound A)+VX-809 (3 uM) with compound at 10 uM and Compound A at 3 uM)”.

As for `Cc1oc2ccccc2c1-c1cc(C(=O)O)c2c(OCC(F)F)ccc(C)c2n1` [Compound 124, 5-(2,2-Difluoroethoxy)-8-methyl-2-(2-methyl-1-benzofuran-3-yl)quinoline-4-carboxylic acid], the Activity result is “+ (activity<50% of an CFTR amplifier (Compound A)+VX-809 (3 uM) with compound at 10 uM and Compound A at 3 uM)”.

Take `Cc1cc(C)c2nc(-c3nc4ccccc4s3)cc(C(=O)O)c2c1` [Compound 2, 2-(1,3-Benzothiazol-2-yl)-6,8-dimethylquinoline-4-carboxylic Acid]: the Activity result is “+ (activity<50% of an CFTR amplifier (Compound A)+VX-809 (3 uM) with compound at 10 uM and Compound A at 3 uM)”.

For the compound `Cc1c(-c2cc(C(=O)O)c3cc(OCC(F)F)cc(C)c3n2)oc2ccccc12` [Compound 119, 6-(2,2-Difluoroethoxy)-8-methyl-2-(3-methyl-1-benzofuran-2-yl)quinoline-4-carboxylic acid], the Activity result is “+ (activity<50% of an CFTR amplifier (Compound A)+VX-809 (3 uM) with compound at 10 uM and Compound A at 3 uM)”.

As for `Cc1c(-c2cc(C(=O)[O-])c3c(O[C@@H](C)c4ccc(OC(F)F)cc4)ccc(C)c3n2)oc2ccccc12.[Na+]` [Compound 236], the Activity result was “++ (activity>50% of CFTR amplifier+VX-809 (3 uM) with compound at 10 uM and Compound A at 3 uM)”.

Take `Cc1c(-c2cc(C(=O)O)c3c(OC(=O)Nc4ccccc4)ccc(C)c3n2)oc2ccccc12` [Compound 81, 8-Methyl-2-(3-methyl-1-benzofuran-2-yl)-5-[(phenylcarbamoyl)oxy]quinoline-4-carboxylic Acid]: the Activity entry is “+ (activity<50% of an CFTR amplifier (Compound A)+VX-809 (3 uM) with compound at 10 uM and Compound A at 3 uM)”.

`Cc1c(-c2cc(C(=O)O)c3c(C)ccc(C)c3n2)oc2c(F)cccc12` [Compound 130, 2-(7-Fluoro-3-methyl-1-benzofuran-2-yl)-5,8-dimethylquinoline-4-carboxylic acid]: the Activity entry was “+ (activity<50% of an CFTR amplifier (Compound A)+VX-809 (3 uM) with compound at 10 uM and Compound A at 3 uM)”.

For `Cc1c(-c2cc(C(=O)[O-])c3c(OC(C)c4ccc(C5COC5)cc4)ccc(C)c3n2)oc2ccccc12.[Na+]` (stereo not shown) [Compound 372], the Activity result is “++ (activity>50% of CFTR amplifier+VX-809 (3 uM) with compound at 10 uM and Compound A at 3 uM)”.

On to `Cc1c(-c2nc(C(=O)O)c3c(OCc4ccccc4)ccc(C)c3n2)oc2ccccc12` [Compound 101, 5-(Benzyloxy)-8-methyl-2-(3-methyl-1-benzofuran-2-yl)quinazoline-4-carboxylic Acid], for which the Activity entry was “++ (activity>50% of CFTR amplifier+VX-809 (3 uM) with compound at 10 uM and Compound A at 3 uM)”.

Turning to `CO[C@]1(C)CC[C@@H](COc2ccc(C)c3nc(-c4oc5ccccc5c4C)cc(C(=O)[O-])c23)CC1.[Na+]` [Compound 388], the Activity result was “++ (activity>50% of CFTR amplifier+VX-809 (3 uM) with compound at 10 uM and Compound A at 3 uM)”.

Regarding `Cc1ccccc1COc1ccc(C)c2nc(-c3sc4ccccc4c3C)cc(C(=O)[O-])c12.[Na+]` [Compound 303], the Activity result was “++ (activity>50% of CFTR amplifier+VX-809 (3 uM) with compound at 10 uM and Compound A at 3 uM)”.

With `Cc1ccc(O[C@H](C)c2ccccc2)c2c(C(=O)[O-])cc(-c3cc4ccccn4n3)nc12.[Na+]` [Compound 208], the Activity entry is “++ (activity>50% of CFTR amplifier+VX-809 (3 uM) with compound at 10 uM and Compound A at 3 uM)”.

In the case of `Cc1c(-c2cc(C(=O)[O-])c3c(OCc4ccccc4F)ccc(C)c3n2)sc2ccccc12.[Na+]` [Compound 289, Sodium 5-[(2-Fluorophenyl)methoxy]-8-methyl-2-(3-methyl-1-benzothiophen-2-yl)quinoline-4-carboxylate], the Activity entry was “++ (activity>50% of CFTR amplifier+VX-809 (3 uM) with compound at 10 uM and Compound A at 3 uM)”.

Take `Cc1c(-c2cc(C(=O)O)c3cc(OC(F)(F)F)cc(C)c3n2)oc2ccccc12` [Compound 117, 8-Methyl-2-(3-methyl-1-benzofuran-2-yl)-6-(trifluoromethoxy)quinoline-4-carboxylic acid]: the Activity result is “++ (activity>50% of CFTR amplifier+VX-809 (3 uM) with compound at 10 uM and Compound A at 3 uM)”.

As to `Cc1c(-c2cc(C(=O)O)c3c(O[C@H]4CC[C@H](c5ccccc5)CC4)ccc(C)c3n2)oc2ccccc12` [Compound 76, 8-Methyl-2-(3-methyl-1-benzofuran-2-yl)-5-[[(1r,4r)-4-phenylcyclohexyl]oxy]quinoline-4-carboxylic acid], the Activity result was “++ (activity>50% of CFTR amplifier+VX-809 (3 uM) with compound at 10 uM and Compound A at 3 uM)”.

On to `Cc1c(-c2cc(C(=O)O)c3c(OCc4ccccc4)ccc(C4CC4)c3n2)oc2ccccc12` [Compound 107, 5-(Benzyloxy)-8-cyclopropyl-2-(3-methyl-1-benzofuran-2-yl)quinoline-4-carboxylic acid], for which the Activity entry is “++ (activity>50% of CFTR amplifier+VX-809 (3 uM) with compound at 10 uM and Compound A at 3 uM)”.

For the compound `Cc1c(-c2cc(C(=O)[O-])c3c(O[C@H]4C[C@H](c5ccccc5)C4)ccc(C)c3n2)oc2ccccc12.[Na+]` [Compound 281, Sodium 8-Methyl-2-(3-methyl-1-benzofuran-2-yl)-5-[(1r,3r)-3-phenylcyclobutoxy]quinoline-4-carboxylate], the Activity entry is “++ (activity>50% of CFTR amplifier+VX-809 (3 uM) with compound at 10 uM and Compound A at 3 uM)”.

In the case of `CCc1ccc(OC2CCCCC2)c2c(C(=O)O)cc(-c3csc4ccccc34)nc12` [Compound 159, 2-(1-Benzothiophen-3-yl)-5-(cyclohexyloxy)-8-ethylquinoline-4-carboxylic acid], the Activity result is “++ (activity>50% of CFTR amplifier+VX-809 (3 uM) with compound at 10 uM and Compound A at 3 uM)”.

For the compound `CCc1ccc(OCc2ccccc2)c2c(C(=O)O)cc(-c3[nH]c4ccccc4c3C)nc12` [Compound 146, 5-(Benzyloxy)-8-ethyl-2-(3-methyl-1H-indol-2-yl)quinoline-4-carboxylic acid], the Activity entry is “++ (activity>50% of CFTR amplifier+VX-809 (3 uM) with compound at 10 uM and Compound A at 3 uM)”.

On to `Cc1c(-c2cc(C(=O)[O-])c3c(OC[C@H]4CC[C@@](C)(O)CC4)ccc(C)c3n2)oc2ccccc12.[Na+]` [Compound 376], for which the Activity entry was “++ (activity>50% of CFTR amplifier+VX-809 (3 uM) with compound at 10 uM and Compound A at 3 uM)”.

Regarding `Cc1c(-c2cc(C(=O)[O-])c3c(OC4CC(C)(C)C4)ccc(C)c3n2)sc2ccccc12.[Na+]` [Compound 318], the Activity entry is “++ (activity>50% of CFTR amplifier+VX-809 (3 uM) with compound at 10 uM and Compound A at 3 uM)”.
